Measurements from PubChem BioAssay (NCI).
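Dose response: 5 concentrations. Exposure: 48 h. Format: 96-well plates. Endpoint: linear interpolation; highest concentration if not reached. At the GI50, growth is halved. At the TGI there is no net growth.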

Assays:
Test in all cases: NCI anticancer screen, dose series, 48 h
CCRF-CEM leukemia = system: CCRF-CEM leukemia
EKVX NSCLC = system: EKVX NSCLC
HCT-15 colon = system: HCT-15 colon
HT29 colon = system: HT29 colon
LOX IMVI melanoma = system: LOX IMVI melanoma
MDA-MB-231 breast = system: MDA-MB-231 breast
OVCAR-8 ovarian = system: OVCAR-8 ovarian
SNB-19 CNS = system: SNB-19 CNS
SW-620 colon = system: SW-620 colon
T-47D breast = system: T-47D breast

| SMILES | TGI (CCRF-CEM leukemia) | TGI (EKVX NSCLC) | TGI (HCT-15 colon) | TGI (HT29 colon) | TGI (LOX IMVI melanoma) | TGI (MDA-MB-231 breast) | TGI (OVCAR-8 ovarian) | TGI (SNB-19 CNS) | TGI (SW-620 colon) | TGI (T-47D breast) | GI50 (CCRF-CEM leukemia) | GI50 (EKVX NSCLC) | GI50 (HCT-15 colon) | GI50 (HT29 colon) | GI50 (LOX IMVI melanoma) | GI50 (MDA-MB-231 breast) | GI50 (OVCAR-8 ovarian) | GI50 (SNB-19 CNS) | GI50 (SW-620 colon) | GI50 (T-47D breast) |
| --- | --- | --- | --- | --- | --- | --- | --- | --- | --- | --- | --- | --- | --- | --- | --- | --- | --- | --- | --- | --- |
| Nc1nc(-c2ccccc2)nc2oc(-c3cccs3)nc12 | > 100 µM | > 100 µM | > 100 µM | > 100 µM | > 100 µM | > 100 µM | > 100 µM | > 100 µM | > 100 µM | > 100 µM | – | – | – | – | – | – | – | – | – | – |
| CCC(=O)NC(Nc1cc(C)on1)(C(F)(F)F)C(F)(F)F | > 100 µM | > 100 µM | > 100 µM | > 100 µM | > 100 µM | > 100 µM | > 100 µM | > 100 µM | > 100 µM | > 100 µM | – | – | – | – | – | – | – | – | – | – |
| O=C(c1ccccn1)C1(N2CCCCC2)CCCCC1 | > 100 µM | > 100 µM | > 100 µM | > 100 µM | > 100 µM | > 100 µM | > 100 µM | > 100 µM | > 100 µM | > 100 µM | – | – | – | – | – | – | – | – | – | – |
| Cc1ccnc(NS(=O)(=O)c2ccc(N=[N+]=[N-])cc2)n1 | > 49.7 µM | > 100 µM | > 100 µM | > 100 µM | > 100 µM | > 100 µM | > 100 µM | > 100 µM | > 100 µM | > 100 µM | – | – | – | – | – | – | – | – | – | – |
| N#CC(NCc1cccc(CNC(C#N)c2ccccc2)c1)c1ccccc1 (stereo not given) | 36.5 µM | > 100 µM | 66.1 µM | 30.8 µM | 28.9 µM | 74.2 µM | > 100 µM | > 100 µM | 61.4 µM | > 100 µM | – | – | – | – | – | – | – | – | – | – |
| CCOC(=O)c1c(CN2CCCC2)n(-c2ccccc2)c2cc(Br)c(O)cc12 | 34.8 µM | 39.7 µM | 40.5 µM | 18.2 µM | 29.8 µM | 39.7 µM | 49.1 µM | 33.3 µM | 42.5 µM | 47 µM | – | – | – | – | – | – | – | – | – | – |
| NC1(c2cc3ccccc3s2)CCCC1 | 42.3 µM | > 100 µM | > 100 µM | > 100 µM | > 100 µM | > 100 µM | > 100 µM | > 100 µM | > 100 µM | > 100 µM | – | – | – | – | – | – | – | – | – | – |
| Cc1ccccc1C(=N)c1ccccc1Cc1cccc2ccccc12 | 42.7 µM | > 100 µM | 56.1 µM | > 100 µM | 31.9 µM | > 100 µM | > 100 µM | > 100 µM | 66 µM | 38.4 µM | – | – | – | – | – | – | – | – | – | – |
| O=c1[nH]c(=S)[nH]c2c1C(c1ccc([N+](=O)[O-])cc1)c1c([nH]c(=S)[nH]c1=O)O2 | > 100 µM | > 100 µM | > 100 µM | > 100 µM | > 100 µM | > 100 µM | > 100 µM | > 100 µM | > 100 µM | > 100 µM | – | – | – | – | – | – | – | – | – | – |
| CCOC(=O)N1CCN(Cc2cc(=O)n3ccc(C)cc3n2)CC1 | > 100 µM | > 100 µM | > 100 µM | > 100 µM | > 100 µM | > 100 µM | > 100 µM | > 100 µM | > 100 µM | > 100 µM | – | – | – | – | – | – | – | – | – | – |
| O=C(/C=C/c1ccccc1)C[C@@H](O)C[C@@H]1CC=CC(=O)O1 | 5.12 µM | 73.1 µM | 25.4 µM | 16.8 µM | 7.02 µM | 27.5 µM | 18.9 µM | 35.7 µM | 5.53 µM | 42.2 µM | – | – | – | – | – | – | – | – | – | – |
| CCCCCC1=CC(=O)C1(Cl)Cl | 6.15 µM | 49.6 µM | 32.4 µM | 36.7 µM | 21.2 µM | 31 µM | 34 µM | > 67.3 µM | 40.5 µM | > 52.2 µM | – | – | – | – | – | – | – | – | – | – |
| C#CCn1c(=O)c2ccccc2n(CC#C)c1=O | > 10 µM | > 10 µM | > 10 µM | > 10 µM | > 10 µM | > 10 µM | > 10 µM | > 10 µM | > 10 µM | > 10 µM | – | – | – | – | – | – | – | – | – | – |
| COc1ccc(-c2[nH]c3c4c(nc5c(c24)C(=O)CC(C)(C)C5)CC(C)(C)C3)cc1 | > 100 µM | > 100 µM | > 100 µM | > 100 µM | > 100 µM | > 100 µM | > 100 µM | > 100 µM | > 100 µM | > 100 µM | – | – | – | – | – | – | – | – | – | – |
| Nc1nc2c(c(-c3cccc(Cl)c3)n1)COC/C2=C\c1cccc(Cl)c1 | > 100 µM | > 100 µM | > 100 µM | > 100 µM | > 100 µM | > 100 µM | > 100 µM | > 100 µM | > 100 µM | > 100 µM | – | – | – | – | – | – | – | – | – | – |
| COc1ccc(CN2C(=O)/C(=C\c3cc(OC)c(OC)c(OC)c3)c3ccccc32)cc1 | > 100 µM | 55.1 µM | 3.86 µM | 3.79 µM | 3.3 µM | > 100 µM | > 100 µM | 3.56 µM | 4.85 µM | 7.31 µM | 1.94 µM | 2.99 µM | 1.9 µM | 1.68 µM | 1.76 µM | 3.34 µM | 3.05 µM | 1.81 µM | 2.15 µM | 2.06 µM |
